According to patent US20200249194A9, “PROSTATE PROTEASE NANOSENSORS AND USES THEREOF” (Massachusetts Institute of Technology, priority 2017, published 2020):
“Also recorded” adds a separate entry of the source. Non-standard residues stand in square brackets, D forms with d. Primed or numbered codes have the meaning given here. No end group written: not given here. *: point of attachment. 5FAM = O=C1OC2(c3ccc(O)cc3Oc3cc(O)ccc32)c2ccc(C(=O)*)cc21; Biotin = O=C1N[C@H]2[C@H](CS[C@H]2CCCCC(=O)*)N1; CPQ2 = quencher paired with 5FAM as FRET pair; PEG2′ = not defined here; PEG = not defined here; QSY21 = QSY21 quencher; Cy5 = Cy5 fluorophore

Legend:
[1] = test system: 15 selected proteases (MPs and SPs); Thrombin, Factor Xa and human plasma as negative filters; experiment: Cleavage of FRET-paired peptide substrates (free and PEG-coupled) by recombinant proteases; format: biochemical
Text: With an identified set of MPs and SPs, a panel of substrates was developed to measure their activity. A panel of 58 FRET-paired peptide substrates (labeled T1-58-Q, where Q denotes quenched Table 6) was screened for cleavage by the 15 selected proteases. To account for background cleavage in circulation, Thrombin, Factor Xa, and human plasma were included as negative filters. The library comprised peptides with diverse physiochemical properties to provide broad coverage, and kinetic parameters of cleavage of the FRET-paired substrates by recombinant proteases were measured and z-score normalized by protease. Substrates were grouped by hierarchical clustering to remove substrates with overlapping cleavage patterns, as they would not provide any orthogonal insight, resulting in a down-selected panel of 26 substrates.
For use in vivo, the peptides may be conjugated to a nanoparticle having robust accumulation in the prostate abilities. Thus, a biodistribution study was performed with three fluorophore-labeled carrier candidates and tested for their biodistribution following i.v. injection. […] Thus, the peptide substrates were conjugated to a PEG core and their cleavage profile was tested. […] Further mechanistic understanding of this variability may improve the development of ABN technology by identifying optimal surface presentation. […] Some substrates were cleaved specifically by a single protease on the biomarker list, whereas others were cleaved by multiple or all members of the enzyme family tested (Table 7).

serine hydrolase = test system: serine hydrolase; design: species or system human
[2] = test system: 22Rv1 cell line supernatant; experiment: Cleavage of 19-plex fluorogenic ABNs in 22Rv1 supernatant; format: cell-based, human
[3] = test system: PC3 cell line supernatant; experiment: Cleavage of 19-plex fluorogenic ABNs in PC3 supernatant; format: cell-based, human; settings: for overall cleavage activity in the presence of inhibitor: PC3 supernatant, 19-plex fluorogenic ABNs; for cleavage by PC3 supernatant compared with 22Rv1: in vitro, fluorogenic
MMP activity = experiment: FRET peptide substrate-cleavage assay in prostate tumor and NAT tissue samples; format: biochemical; settings: human prostate tumor and matched NAT
Procedure: An assay was developed to measure protease activity in tissue samples. The mouse samples were excised, frozen in LN2, homogenized in PBS at 200 mgs/mL, and incubated with Q7 (FIG. 14A). In situ tissue zymography assays were additionally developed for frozen sections. Five sets of clinical human samples (both tumor and normal adjacent) were examined (FIG. 14B). The remaining fraction was tested on FRET substrates. Human sample cleavage was analyzed with substrate cleavage assays (Table 3). It was observed that many substrates are differentially cleaved in cancer tissue versus normal adjacent tissue.
As MP ABPs are less robust than serine ABPs, a FRET peptide substrate-cleavage assay was used to assay for MMP activity in the same tissue set evaluated by SOMAscan. Given the minimal tissue material available, each sample was evaluated with only a subset of substrates in duplicate. Multiple substrates were cleaved to a greater extent in tumor samples.

22Rv1 xenografts = experiment: Urinary reporter signal of ABNs in 22Rv1 xenograft-bearing mice; format: in vivo
PC3 xenografts = experiment: Urinary reporter signal of ABNs in PC3 xenograft-bearing mice; format: in vivo; settings: for classification of PC3-bearing from 22Rv1-bearing mice: ROC curve analysis; for relative urine signal, PC3 compared with 22Rv1: 19-plex, mass-encoded reporters, xenografts ~100 mm3
Procedure: Having achieved this proof-of-concept urine monitoring of protease activity with a single substrate, the entire ABN library was tested in vivo with an emphasis on identifying reporters to differentiate mice bearing more aggressive (PC3) versus less aggressive (22Rv1) xenografts. To quantify cleavage of the entire library in urine, the substrates were barcoded using a next generation of mass-encoded reporters built upon the isobar coded reporters method (Kwong et al., Nat Biotechnol 31:63-70 (2013)). This […] sensor library enables increased multiplexing by uniquely labeling each peptide with stable 13C and 15N atoms, allowing for quantitation of reporter barcodes across a large dynamic range using liquid chromatography-tandem mass spectrometry (Table 8). To account for variability in glomerular filtration rate, urine volume, and hydration state, a free reporter (not coupled to PEG) was co-injected. The 19-plex ABN library was serially injected i.v. to PC3 tumor-bearing mice over the course of tumor development. […] Next, the ability of the 19-plex library to classify PC3 from 22Rv1 tumor-bearing mice was sought to be determined. Using the mass-encoded reporters to examine the cleavage of each individual sensor, an early time point was focused on and it was observed that several substrates were differentially cleaved between animals bearing similarly sized xenografts ( 100 mm3) from the more (PC3) versus less aggressive (22Rv1) cell lines. Overall, the cleavage profile differences between the two cohorts agree with each cell line's protease expression patterns and the substrate specificity of each protease. […] To simplify urinalysis, these ABNs were designed to release biotinylated urinary reporters to enable ELISA-based readouts. […] Additionally, PSA measurements in mice may overestimate its sensitivity, as there is no mouse homolog of PSA (Lundwall et al., Biol Chem 387:243-249 (2006)). It was next tested whether the three-plex iRGD-ABNs could classify distinct prostate cancer tumors. […] Based on ROC curve analysis, the […] ABNs classified the mice bearing the more aggressive PC3-derived tumors as distinct from 22Rv1-bearing mice. […] Differential expression analysis was performed on TCGA data using […]. Survival analysis was performed using cBioPortal. SOMAscan was performed at the Beth Israel Deaconess Medical Center (BIDMC) Genomics Proteomics Core. […] Sigma) at 1 μM in PBS. • Animal Models. All animal studies were approved by Massachusetts Institute of Technology's Committee on Animal Care (CAC) (Protocol 0417-025-20). Four- to six-week-old male NCr nude mice (Taconic) were injected bilaterally with 3.5×10^6 PCa cells per flank in a 1:1 ratio of complete media and Matrigel (354234; Corning). Baseline urine measurement was obtained before xenograft implantation. Histology sectioning and staining was performed at KI Histology Core.

MMP13, uPA, KLK, MMP = experiment: Substrate cleavage assay of protease nanosensors (FIG. 12A); format: biochemical
Procedure: Xenograft model 22Rv1 (a non-metastatic tumor, referred to as Tnon-met) is derived from a primary tumor. […] PC3 (a metastatic tumor, referred to as Tmet) is undifferentiated, AR^−, PSA^−, and metastasizes to lymph node (LN), lung, and bone. Multiplexed sensors were selected to classify Tmet from Tnon-met (FIGS. 7A-7F). A substrate cleavage assay was performed (FIG. 12A) with several protease nanosensors (FIGS. 9A-9B and FIGS. 12A-12B).

[4] = test system: 22Rv1 xenograft tumor homogenates; experiment: Protease activity of tumor homogenates ex vivo; format: biochemical, mice
tumor protease activity = experiment: In vivo protease activity imaging study; design: species or system mice; settings: red-shifted FRET pair
[5] = PEG-coupled quenched substrate, protease that cleaves it

Molecule: PEG-T7-Q: quenched FRET peptide substrate T7 conjugated to PEG core (5FAM-GGPLGVRGKK(CPQ2)[PEG2′]C; also: conjugated to PEG core, attachment not given here)
- Second hit [1, 5]: MMP26
- Top hit [1, 5]: MMP9

Molecule: NCCc1ccc(S(=O)(=O)F)cc1 [AEBSF]
- effect of inhibitor on FP-TAMRA labeling (serine hydrolase): mitigated
- overall cleavage activity in the presence of inhibitor [2]: reduced
- overall cleavage activity in the presence of inhibitor [3]: reduced

Molecule: T7: MMP-sensing peptide substrate (GPLGVRGK) of ABN library, reporter R3_04 (also: reporter R3_04 attached) [Substrate T7]
- cleavage signal, tumor vs NAT samples (MMP activity): signal was elevated across the majority of tumor samples
- urine signal (22Rv1 xenografts; 19-plex library, 22Rv1 mice): gave rise to urine signals
- urinary signal (22Rv1 xenografts; single sensor, biotinylated reporter, 22Rv1 xenograft-bearing mice): increased urinary signal
- urine signal relative to control animals (22Rv1 xenografts; three-plex iRGD-ABNs, individual reporter, 22Rv1-bearing): elevated relative to control animals
- urine signal (PC3 xenografts; 19-plex library, PC3 mice): gave rise to urine signals
- classification of PC3-bearing from 22Rv1-bearing mice (PC3 xenografts; three-plex iRGD-ABNs): did not classify between the two cohorts
- urine signal relative to control animals (PC3 xenografts; three-plex iRGD-ABNs, individual reporter, PC3-bearing): elevated relative to control animals

Molecule: PEG-T39-Q: quenched FRET peptide substrate T39 conjugated to PEG core (5FAM-GGGSGRSANAKGK(CPQ2)[PEG2′]GC; also: conjugated to PEG core, attachment not given here)
- Top hit [1, 5]: uPA

Molecule: T39: uPA peptide substrate (GGGSGRSANAKG) of ABN library, reporter R3_09 (also: reporter R3_09 attached) [Substrate T39]
- protease that cleaves the substrate in vitro [1]: uPA
- cleavage by PC3 supernatant compared with 22Rv1 [3]: cleaved differentially
- relative urine signal, PC3 compared with 22Rv1 (PC3 xenografts): higher relative urine signal change; also recorded: elevated
- cleavage (individual reporter readout), PC3 relative to 22Rv1 (PC3 xenografts; three-plex iRGD-ABNs): significantly greater cleavage
- classification of PC3-bearing from 22Rv1-bearing mice (PC3 xenografts; three-plex iRGD-ABNs): classified

Molecule: T24: MMP13 peptide substrate (GGLGPKGQTG) of ABN library, reporter R3_06 (also: reporter R3_06 attached) [Substrate T24]
- protease that cleaves the substrate in vitro [1]: MMP13
- cleavage by PC3 supernatant compared with 22Rv1 [3]: cleaved differentially
- relative urine signal, PC3 compared with 22Rv1 (PC3 xenografts): higher relative urine signal change; also recorded: elevated
- cleavage (individual reporter readout), PC3 relative to 22Rv1 (PC3 xenografts; three-plex iRGD-ABNs): significantly greater cleavage
- classification of PC3-bearing from 22Rv1-bearing mice (PC3 xenografts; three-plex iRGD-ABNs): classified

Molecule: PB2: protease nanosensor, uPA substrate, SEQ ID NO: 8 (Biotin-EGVNDNEEGFFSARKGGGSGRSANAKGC(PEG); reading uncertain; also: FAM label at residues 15-16, exact place not given here)
- substrate specificity of nanosensor (MMP13, uPA, KLK, MMP): uPA substrate

Molecule: CNC(=O)[C@@H](NC(=O)[C@H](CC(C)C)[C@H](O)C(=O)NO)C(C)(C)C [marimastat]
- overall cleavage activity in the presence of inhibitor [2]: reduced
- overall cleavage activity in the presence of inhibitor [3]: reduced
- T7 sensor cleavage in the presence of inhibitor [4]: diminished

Molecule: PB13: protease nanosensor, broadly cleaved KLK substrate, SEQ ID NO: 9 (Biotin-EGVNDNEEGFFSARKGSGSKIIGGGC(PEG); reading uncertain; also: TAMRA at positions 15-16)
- substrate specificity of nanosensor (MMP13, uPA, KLK, MMP): broadly cleaved KLK substrate

Molecule: PEG-T24-Q: quenched FRET peptide substrate T24 conjugated to PEG core (5FAM-GGLGPKGQTGK(CPQ2)[PEG2′]C; also: conjugated to PEG core, attachment not given here)
- Top hit [1, 5]: MMP13

Molecule: (QSY21)-GGPLGVRGKK(Cy5)-(PEG2)-C (QSY21-GGPLGVRGKK(Cy5)[PEG2′]C) [red-shifted FRET paired T7 substrate]
- fluorescence signal, tumor compared with liver (tumor protease activity): greater fluorescence signal in the tumor compared with the liver
